{"source": "patent US20050182100A1", "about": "“Method of use” (priority 2002, published 2005)", "key": {"[1]": {"test_system": "patients with dyspepsia associated with gastric ulcers, duodenal ulcers, reflux esophagitis and gastroesophageal reflux without esophagitis", "settings": "clinical studies; cited from earlier work"}, "[2]": {"test_system": "patients affected by sleeping disturbance", "assay": "Administration of esomeprazole to patients affected by sleeping disturbance", "format": "in vivo, human", "settings": "especially with GERD, oral route", "excerpt": "This applies especially to patients with GERD.\nWhile the effect on the symptoms of sleeping disturbance have been established in patients who have taken esomeprazole by the oral route, it is believed that the improved effect of esomeprazole is a systemic effect which is not dependent on what mode of administration that is used, and that accordingly the improved effect on sleeping and quality of life will be seen also with other routes of administration such as rectal or parenteral administration.\nThe invention is further exemplified by the following case studies. During oral treatment with esomeprazole for acid related diseases such as non-erosive and erosive induced upper gastrointestinal disorders, evidence has accumulated that esomeprazole may be beneficial for treatment of sleeping disturbance especially in patients with GERD and endoscopy negative GERD."}, "[3]": {"settings": "at neutral or acid pH; cited from earlier work"}}, "data": [{"smiles": "COc1ccc2[nH]c([S+]([O-])Cc3ncc(C)c(OC)c3C)nc2c1", "note": "(racemic) [omeprazole, 5-methoxy-2-[[(4-methoxy-3,5-dimethyl-2-pyridinyl)methyl]sulfinyl]-1H-benzimidazole]", "values": [{"measurement": "healing of gastroduodenal and esophageal lesions and dyspeptic symptom resolution versus H2 receptor antagonists", "setting": "[1]", "result": "superior to H2 receptor antagonists"}]}, {"smiles": "COc1ccc2nc([S@@+]([O-])Cc3ncc(C)c(OC)c3C)[nH]c2c1", "note": "[esomeprazole, S-5-methoxy-2-[[(4-methoxy-3,5-dimethyl-2-pyridinyl)methyl]sulfinyl]-1H-benzimidazole]", "values": [{"measurement": "effect on symptoms of sleeping disturbance", "setting": "[2]", "result": "disappearance or great improvement of the symptoms"}, {"measurement": "storage stability", "setting": "[3]", "result": "poor storage stability"}]}]}
